Test results taken from paper PMC12396409, “Screening and hit evaluation of a microbial metabolite library against the pathogenic Plasmodium falciparum and Toxoplasma gondii parasites” (International Journal for Parasitology: Drugs and Drug …, 2025).
Read-outs that look alike come from different tables or passages of the source. Where a SMILES comes first, the peptide text is derived from it. [ ]: non-standard residue; d: D form. dNMeL = CN[C@H](CC(C)C)C(=O)O; Hiv = CC(C)[C@H](O)C(=O)O

Legend:
[1] = test system: P. falciparum 3D7 parasites; experiment: P. falciparum growth inhibition assay, 2-cycle (120 h treatment), delayed-death screen and dose-response; type: cell-based, Plasmodium falciparum; conditions: for activity at 2 µg/mL: Plasmodium falciparum, 3D7
[2] = test system: T. gondii RH strain (RH-Tub-eYFP) tachyzoites; experiment: microbe, parasite or virus in culture; type: cell-based, Toxoplasma gondii; conditions: for Tg_72h_%Growth_Rep1 / Tg_72h_%Growth_Rep2 / percent parasite growth at 2 µg/mL: 72 h; for percent parasite growth at 2 µg/mL: Toxoplasma gondii
[3] = test system: P. falciparum 3D7 parasites; experiment: P. falciparum growth inhibition assay, 1-cycle (72 h treatment), SYBR DNA staining (library screen at 2 μg/mL and dose-response); type: cell-based, Plasmodium falciparum; conditions: for activity at 2 µg/mL: Plasmodium falciparum, 3D7
[4] = P. falciparum, 120 h, parasite screen 2 μg/mL, % growth, replicate 1
[5] = P. falciparum, 120 h, parasite screen 2 μg/mL, % growth, replicate 2
[6] = T. gondii, parasite screen 2 μg/mL, % growth, replicate 1
[7] = T. gondii, parasite screen 2 μg/mL, % growth, replicate 2
[8] = P. falciparum, 72 h, parasite screen 2 μg/mL, % growth, replicate 1
[9] = P. falciparum, 72 h, parasite screen 2 μg/mL, % growth, replicate 2
[10] = active against the parasite at 2 μg/mL, no anti-tumour (NS-1) or cytotoxic (fibroblast) activity at 5 μg/mL

Q: `CC(C)C[C@@H]1NC(=O)[C@H](C(C)C)NC(=O)[C@H](C(C)C)OC(=O)[C@@H](CC(C)C)N(C)C(=O)[C@@H](C(C)C)NC(=O)[C@H](C(C)C)OC1=O` [Sporidesmolide I] (cyclo([Hiv]VL[Hiv][dV][dNMeL])) was tested. Which Pf_120h_%Growth_Rep1 [1, 4] did it give?
A: The Pf_120h_%Growth_Rep1 was 103.89%.

Q: And the Pf_120h_%Growth_Rep2 [1, 5]?
A: Its Pf_120h_%Growth_Rep2 is 100.78%.

Q: What about the Tg_72h_%Growth_Rep1 [2, 6] of the same compound?
A: Its Tg_72h_%Growth_Rep1 is 147.37%.

Q: What about the Tg_72h_%Growth_Rep2 [2, 7] of the same compound?
A: The Tg_72h_%Growth_Rep2 was 92.68%.

Q: And the Pf_72h_%Growth_Rep1 [3, 8]?
A: The Pf_72h_%Growth_Rep1 was 86.99%.

Q: And the Pf_72h_%Growth_Rep2 [3, 9]?
A: Its Pf_72h_%Growth_Rep2 is 89.18%.

Q: What does the source list for `CCCCC[C@@]1(OC(=O)CCC(=O)O)CC[C@]2(CC[C@H](C)[C@@H](C/C=C(C)/C=C/[C@H](O)[C@@H](C)/C=C/C(=O)O)O2)O[C@H]1/C=C/C(C)=C/C(=O)O` [Reveromycin D]?
A: Pf_120h_%Growth_Rep1 [1, 4]: 51.02%; Pf_120h_%Growth_Rep2 [1, 5]: 15.46%; Tg_72h_%Growth_Rep1 [2, 6]: 109.29%; Tg_72h_%Growth_Rep2 [2, 7]: 94.72%; Pf_72h_%Growth_Rep1 [3, 8]: 62.63%; Pf_72h_%Growth_Rep2 [3, 9]: 21.41%

Q: With `Cc1c2ccocc-2oc1=O` [BIA-K1791] as the compound, how does the Pf_120h_%Growth_Rep1 ([1]; P. falciparum 3D7, 120 h, library screen at 2 μg/mL, % growth, replicate 1) read?
A: Its Pf_120h_%Growth_Rep1 is 94.18%.

Q: What about the Pf_120h_%Growth_Rep2 ([1]; P. falciparum 3D7, 120 h, library screen at 2 μg/mL, % growth, replicate 2) of the same compound?
A: The Pf_120h_%Growth_Rep2 was 112.81%.

Q: What about the Tg_72h_%Growth_Rep1 ([2]; T. gondii RH, library screen at 2 μg/mL, % growth, replicate 1) of the same compound?
A: The Tg_72h_%Growth_Rep1 was 112.84%.

Q: And the Tg_72h_%Growth_Rep2 ([2]; T. gondii RH, library screen at 2 μg/mL, % growth, replicate 2)?
A: The Tg_72h_%Growth_Rep2 was 99.08%.

Q: And the Pf_72h_%Growth_Rep1 ([3]; P. falciparum 3D7, 72 h, library screen at 2 μg/mL, % growth, replicate 1)?
A: Its Pf_72h_%Growth_Rep1 is 78.18%.

Q: And the Pf_72h_%Growth_Rep2 ([3]; P. falciparum 3D7, 72 h, library screen at 2 μg/mL, % growth, replicate 2)?
A: Its Pf_72h_%Growth_Rep2 is 121.18%.

Q: Which results are given for `CC(C)=CCc1cc(C=C2OC(=O)C(c3cc(CC=C(C)C)c(O)cc3O)=C2O)ccc1O` [Aspulvinone O]?
A: Pf_120h_%Growth_Rep1 ([1]; library screen at 2 μg/mL, 120 h, % growth, replicate 1): 144.60%; Pf_120h_%Growth_Rep2 ([1]; library screen at 2 μg/mL, 120 h, % growth, replicate 2): 98.61%; Tg_72h_%Growth_Rep1 ([2]; library screen at 2 μg/mL, % growth, replicate 1): 90.15%; Tg_72h_%Growth_Rep2 ([2]; library screen at 2 μg/mL, % growth, replicate 2): 99.19%; Pf_72h_%Growth_Rep1 ([3]; library screen at 2 μg/mL, 72 h, % growth, replicate 1): 82.88%; Pf_72h_%Growth_Rep2 ([3]; library screen at 2 μg/mL, 72 h, % growth, replicate 2): 86.74%

Q: Which activity at 2 µg/mL ([1]; P. falciparum, 120 h, parasite screen 2 μg/mL, % growth, replicate 1, read-out: Pf_120h_%Growth_Rep1) does the source give for `COC(=O)c1cc(O)cc(OC)c1C(=O)c1c(O)cc(C)cc1O` [Sulochrin] here?
A: Its activity at 2 µg/mL is 93.2%.

Q: What about the activity at 2 µg/mL ([1]; P. falciparum, 120 h, parasite screen 2 μg/mL, % growth, replicate 2, read-out: Pf_120h_%Growth_Rep2) of the same compound?
A: Its activity at 2 µg/mL is 96.4%.

Q: What about the percent parasite growth at 2 µg/mL ([2]; T. gondii, parasite screen 2 μg/mL, % growth, replicate 1, read-out: Tg_72h_%Growth_Rep1) of the same compound?
A: The percent parasite growth at 2 µg/mL was 153%.

Q: And the percent parasite growth at 2 µg/mL ([2]; T. gondii, parasite screen 2 μg/mL, % growth, replicate 2, read-out: Tg_72h_%Growth_Rep2)?
A: Its percent parasite growth at 2 µg/mL is 100%.

Q: What about the activity at 2 µg/mL ([3]; P. falciparum, 72 h, parasite screen 2 μg/mL, % growth, replicate 1, read-out: Pf_72h_%Growth_Rep1) of the same compound?
A: Its activity at 2 µg/mL is 88.9%.

Q: What about the activity at 2 µg/mL ([3]; P. falciparum, 72 h, parasite screen 2 μg/mL, % growth, replicate 2, read-out: Pf_72h_%Growth_Rep2) of the same compound?
A: The activity at 2 µg/mL was 90.8%.

Q: What does the source list for `CC=C(C)c1c(Cl)c(O)c(C)c2c1Oc1c(Cl)c(O)c(Cl)c(C)c1C(=O)O2` [BIA-N1159]?
A: Pf_120h_%Growth_Rep1 ([1]; P. falciparum 3D7, 120 h, parasite screen at 2 μg/mL, % growth, replicate 1): 97.37%; Pf_120h_%Growth_Rep2 ([1]; P. falciparum 3D7, 120 h, parasite screen at 2 μg/mL, % growth, replicate 2): 135.76%; Tg_72h_%Growth_Rep1 ([2]; T. gondii, parasite screen at 2 μg/mL, % growth, replicate 1): 86.78%; Tg_72h_%Growth_Rep2 ([2]; T. gondii, parasite screen at 2 μg/mL, % growth, replicate 2): 84.63%; Pf_72h_%Growth_Rep1 ([3]; P. falciparum 3D7, 72 h, parasite screen at 2 μg/mL, % growth, replicate 1): 85.21%; Pf_72h_%Growth_Rep2 ([3]; P. falciparum 3D7, 72 h, parasite screen at 2 μg/mL, % growth, replicate 2): 97.34%

Q: What does the source list for `CO[C@H]1[C@@H](OC)C[C@H](C)[C@@H](OC)c2cc(O)cc(c2O)NC(=O)/C(C)=C/C=C\[C@H](OC)[C@@H](OC(N)=O)/C(C)=C/[C@@H]1C` [TAN 420E]?
A: Pf_120h_%Growth_Rep1 [1, 4]: 36.47%; Pf_120h_%Growth_Rep2 [1, 5]: 7.03%; Tg_72h_%Growth_Rep1 [2, 6]: 60.21%; Tg_72h_%Growth_Rep2 [2, 7]: 64.79%; Pf_72h_%Growth_Rep1 [3, 8]: 3.51%; Pf_72h_%Growth_Rep2 [3, 9]: -0.34%

Q: `CC(=O)O[C@@H]1/C=C\[C@@](C)(O)C(=O)[C@@H](C)C/C=C\[C@H]2[C@H](O)C(C)=C(C)[C@H]3C(Cc4ccccc4)NC(=O)[C@]132` (some centres unmarked) [cytochalasin C] was tested. Which Pf_120h_%Growth_Rep1 ([1]; P. falciparum, 120 h, screen at 2 μg/mL, replicate 1) did it give?
A: The Pf_120h_%Growth_Rep1 was 12.52%.

Q: And the Pf_120h_%Growth_Rep2 ([1]; P. falciparum, 120 h, screen at 2 μg/mL, replicate 2)?
A: Its Pf_120h_%Growth_Rep2 is 10.45%.

Q: What about the Tg_72h_%Growth_Rep1 ([2]; T. gondii, screen at 2 μg/mL, replicate 1) of the same compound?
A: The Tg_72h_%Growth_Rep1 was 0.57%.

Q: And the Tg_72h_%Growth_Rep2 ([2]; T. gondii, screen at 2 μg/mL, replicate 2)?
A: Its Tg_72h_%Growth_Rep2 is 15.53%.

Q: And the “selectivity for T. gondii in the screens” value [2, 10]?
A: Its value is “active selectively against P. falciparum and T. gondii”.

Q: What about the Pf_72h_%Growth_Rep1 ([3]; P. falciparum, 72 h, screen at 2 μg/mL, replicate 1) of the same compound?
A: Its Pf_72h_%Growth_Rep1 is 7.71%.

Q: What about the Pf_72h_%Growth_Rep2 ([3]; P. falciparum, 72 h, screen at 2 μg/mL, replicate 2) of the same compound?
A: Its Pf_72h_%Growth_Rep2 is 8.08%.

Q: What about the “selectivity for P. falciparum in the screens” value [3, 10] of the same compound?
A: Its value is “active selectively against P. falciparum and T. gondii”.

Q: Which results are given for `O=C1NC(c2c[nH]c3ccc(O)cc23)=C/C1=C1\C(=O)Nc2ccccc21` [Violacein]?
A: activity at 2 µg/mL ([1]; P. falciparum, 120 h, screen at 2 μg/mL, replicate 1, read-out: Pf_120h_%Growth_Rep1): 170%; activity at 2 µg/mL ([1]; P. falciparum, 120 h, screen at 2 μg/mL, replicate 2, read-out: Pf_120h_%Growth_Rep2): 91.7%; percent parasite growth at 2 µg/mL ([2]; T. gondii, screen at 2 μg/mL, replicate 1, read-out: Tg_72h_%Growth_Rep1): 85.9%; percent parasite growth at 2 µg/mL ([2]; T. gondii, screen at 2 μg/mL, replicate 2, read-out: Tg_72h_%Growth_Rep2): 106%; activity at 2 µg/mL ([3]; P. falciparum, 72 h, screen at 2 μg/mL, replicate 1, read-out: Pf_72h_%Growth_Rep1): 83.3%; activity at 2 µg/mL ([3]; P. falciparum, 72 h, screen at 2 μg/mL, replicate 2, read-out: Pf_72h_%Growth_Rep2): 90.2%
